Measured values reported in patent publication US8889874B2, “Imidazolone-chalcone derivatives as potential anticancer agent and process for the preparation thereof” (Council of Scientific and Industrial Research, priority 2010, dated 2014).
Read-outs that look alike come from different tables or passages of the source.

Experiments:
Assay type in all cases: cell-based, human
[1] = tested on: BT-549 (breast); assay: NCI anticancer screen, SRB assay, 48 h; settings: Homo sapiens
In short: (§1)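 Sulforhodamine B protein assay read cell growth after 48 h of continuous compound exposure. Dose-response curves per cell line used at least five 10-fold-diluted concentrations, within a panel of fifty-three human lines from nine tumour types.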

[2] = tested on: HCT-116 (colon); assay: NCI anticancer screen, SRB assay, 48 h; settings: Homo sapiens
In short: as §1

[3] = tested on: M14 (melanoma); assay: NCI anticancer screen, SRB assay, 48 h; settings: Homo sapiens
In short: as §1

[4] = tested on: NCI-H460 (non-small cell lung); assay: NCI anticancer screen, SRB assay, 48 h; settings: Homo sapiens
In short: as §1

[5] = tested on: NCI-H522 (non-small cell lung); assay: NCI anticancer screen, SRB assay, 48 h; settings: Homo sapiens
In short: as §1

[6] = tested on: OVCAR-3 (ovarian); assay: NCI anticancer screen, SRB assay, 48 h; settings: Homo sapiens
In short: as §1

[7] = tested on: RXF 393 (renal); assay: NCI anticancer screen, SRB assay, 48 h; settings: Homo sapiens
In short: as §1

[8] = tested on: SF-268 (CNS); assay: NCI anticancer screen, SRB assay, 48 h; settings: Homo sapiens
In short: as §1

[9] = tested on: SF-295 (CNS); assay: NCI anticancer screen, SRB assay, 48 h; settings: Homo sapiens
In short: as §1

[10] = tested on: SF-539 (CNS); assay: NCI anticancer screen, SRB assay, 48 h; settings: Homo sapiens
In short: as §1

[11] = tested on: SK-MEL-2 (melanoma); assay: NCI anticancer screen, SRB assay, 48 h; settings: Homo sapiens
In short: as §1

[12] = tested on: SK-MEL-28 (melanoma); assay: NCI anticancer screen, SRB assay, 48 h; settings: Homo sapiens
In short: as §1

[13] = tested on: SK-OV-3 (ovarian); assay: NCI anticancer screen, SRB assay, 48 h; settings: Homo sapiens
In short: as §1

[14] = tested on: SW-620 (colon); assay: NCI anticancer screen, SRB assay, 48 h; settings: Homo sapiens
In short: as §1

[15] = tested on: TD-47D (breast); assay: NCI anticancer screen, SRB assay, 48 h; settings: Homo sapiens
In short: as §1

[16] = tested on: UACC-62 (melanoma); assay: NCI anticancer screen, SRB assay, 48 h; settings: Homo sapiens
In short: as §1

[17] = tested on: UO-31 (renal); assay: NCI anticancer screen, SRB assay, 48 h; settings: Homo sapiens
In short: as §1

[18] = tested on: Breast cancer cell lines; assay: NCI anticancer screen, SRB assay, panel summary; settings: Homo sapiens
In short: as §1

[19] = tested on: CNS cancer cell lines; assay: NCI anticancer screen, SRB assay, panel summary; settings: for GI50: Homo sapiens
In short: as §1

[20] = tested on: Colon cancer cell lines; assay: NCI anticancer screen, SRB assay, panel summary; settings: for GI50: Homo sapiens
In short: as §1

[21] = tested on: Leukemia cancer cell lines; assay: NCI anticancer screen, SRB assay, panel summary; settings: Homo sapiens
In short: as §1

[22] = tested on: Melanoma cancer cell lines; assay: NCI anticancer screen, SRB assay, panel summary; settings: for GI50: Homo sapiens
In short: as §1

[23] = tested on: Non-small cell lung cancer cell lines; assay: NCI anticancer screen, SRB assay, panel summary; settings: Homo sapiens
In short: as §1

[24] = tested on: Ovarian cancer cell lines; assay: NCI anticancer screen, SRB assay, panel summary; settings: Homo sapiens
In short: as §1

[25] = tested on: Prostate cancer cell lines; assay: NCI anticancer screen, SRB assay, panel summary
In short: as §1

[26] = tested on: Renal cancer cell lines; assay: NCI anticancer screen, SRB assay, panel summary; settings: Homo sapiens
In short: as §1

[27] = 48 h exposure, SRB, read-out: GI50
[28] = read-out: pGI50 (-log of molar concentration causing 50% inhibition of net cell growth) (converted)

Compound: O=C(/C=C/c1cccc(O)c1)c1cccc(-n2cc(-c3ccc4ccccc4c3)[nH]c2=O)c1 [12b, 1-3-[(E)-3-(3-hydroxyphenyl)-2-propenoyl]phenyl-4-(2-naphthyl)-2,3-dihydro-1H-2-imidazolone]
- GI50 [1, 27]: 1890 nM
- GI50 [1, 28]: 1910 nM
- GI50 [2, 27]: 400 nM
- GI50 [2, 28]: 398 nM
- GI50 [3, 27]: 1490 nM
- GI50 [3, 28]: 1480 nM
- GI50 [4, 27]: 1670 nM
- GI50 [4, 28]: 1660 nM
- GI50 [5, 27]: 1290 nM
- GI50 [5, 28]: 1290 nM
- GI50 [6, 27]: 1330 nM
- GI50 [6, 28]: 1320 nM
- GI50 ([7]; RXF 393, 48 h exposure, SRB, read-out: GI50): 1410 nM
- GI50 ([7]; RXF-393, read-out: pGI50 (-log of molar concentration causing 50% inhibition of net cell growth) (converted)): 1410 nM
- GI50 [8, 27]: 1730 nM
- GI50 [8, 28]: 1740 nM
- GI50 [9, 27]: 1440 nM
- GI50 [9, 28]: 1450 nM
- GI50 [10, 27]: 1550 nM
- GI50 [10, 28]: 1550 nM
- GI50 [11, 27]: 2310 nM
- GI50 [11, 28]: 2290 nM
- GI50 [12, 27]: 3.79 µM
- GI50 [12, 28]: 3.8 µM
- GI50 [13, 27]: 2150 nM
- GI50 [13, 28]: 2140 nM
- GI50 [14, 27]: 220 nM
- GI50 [14, 28]: 219 nM
- GI50 [15, 27]: 1110 nM
- GI50 [15, 28]: 1120 nM
- GI50 [16, 27]: 1800 nM
- GI50 [16, 28]: 1820 nM
- GI50 [17, 27]: 1260 nM
- GI50 [17, 28]: 1260 nM
- GI50 ([18]; Breast panel, log of concentration in mol/L causing 50% inhibition of net cell growth, read-out: mean graph midpoint (MG_MID) of Log10 GI50 (converted)): 1290 nM
- LC50 ([18]; Breast panel, log of concentration leading to 50% net cell death, read-out: mean graph midpoint (MG_MID) of Log10 LC50 (converted)): 31.6 µM
- GI50 ([18]; five breast cancer cell lines, exposure at least 48 hrs, read-out: GI50, range over the panel): 470 to 2010 nM
- mean graph midpoint (MG_MID) of Log10 LC50 ([19]; CNS panel, log of concentration leading to 50% net cell death): 5.04
- GI50 ([19]; CNS panel, log of concentration in mol/L causing 50% inhibition of net cell growth, read-out: mean graph midpoint (MG_MID) of Log10 GI50 (converted)): 1480 nM
- GI50 ([19]; six CNS cancer cell lines, exposure at least 48 hrs, read-out: GI50, range over the panel): 1090 to 1880 nM
- mean graph midpoint (MG_MID) of Log10 LC50 ([20]; Colon panel, log of concentration leading to 50% net cell death): 5.08
- GI50 ([20]; Colon panel, log of concentration in mol/L causing 50% inhibition of net cell growth, read-out: mean graph midpoint (MG_MID) of Log10 GI50 (converted)): 1020 nM
- GI50 ([20]; seven colon cancer cell lines, exposure at least 48 hrs, read-out: GI50, range over the panel): 220 to 2130 nM
- GI50 ([21]; Leukemia panel, log of concentration in mol/L causing 50% inhibition of net cell growth, read-out: mean graph midpoint (MG_MID) of Log10 GI50 (converted)): 1550 nM
- LC50 ([21]; Leukemia panel, log of concentration leading to 50% net cell death, read-out: mean graph midpoint (MG_MID) of Log10 LC50 (converted)): ≥ 100 µM
- GI50 ([21]; two leukemia cancer cell lines (RPMI-8226 and K-562), exposure at least 48 hrs, read-out: GI50, range over the panel): 1430 to 1670 nM
- GI50 ([22]; Melanoma panel, log of concentration in mol/L causing 50% inhibition of net cell growth, read-out: mean graph midpoint (MG_MID) of Log10 GI50 (converted)): 1950 nM
- GI50 ([22]; nine melanoma cancer cell lines, exposure at least 48 hrs, read-out: GI50, range over the panel): 850 to 4130 nM
- mean graph midpoint (MG_MID) of Log10 LC50 ([22]; Melanoma panel, log of concentration leading to 50% net cell death): 4.62
- GI50 ([23]; Non-small cell lung panel, log of concentration in mol/L causing 50% inhibition of net cell growth, read-out: mean graph midpoint (MG_MID) of Log10 GI50 (converted)): 1740 nM
- LC50 ([23]; Non-small cell lung panel, log of concentration leading to 50% net cell death, read-out: mean graph midpoint (MG_MID) of Log10 LC50 (converted)): 20 µM
- GI50 ([23]; nine non-small cell lung cancer cell lines, exposure at least 48 hrs, read-out: GI50, range over the panel): 510 to 3380 nM
- GI50 ([24]; Ovarian panel, log of concentration in mol/L causing 50% inhibition of net cell growth, read-out: mean graph midpoint (MG_MID) of Log10 GI50 (converted)): 1820 nM
- LC50 ([24]; Ovarian panel, log of concentration leading to 50% net cell death, read-out: mean graph midpoint (MG_MID) of Log10 LC50 (converted)): 25.7 µM
- GI50 ([24]; six ovarian cancer cell lines, exposure at least 48 hrs, read-out: GI50, range over the panel): 1330 to 2330 nM
- GI50 ([25]; Homo sapiens, log of concentration in mol/L causing 50% inhibition of net cell growth, read-out: mean graph midpoint (MG_MID) of Log10 GI50 (converted)): 1860 nM
- LC50 ([25]; Homo sapiens, log of concentration leading to 50% net cell death, read-out: mean graph midpoint (MG_MID) of Log10 LC50 (converted)): 79.4 µM
- mean graph midpoint (MG_MID) of Log10 TGI ([25]; log of concentration resulting in total inhibition of net cell growth): 5.10
- GI50 ([26]; Renal panel, log of concentration in mol/L causing 50% inhibition of net cell growth, read-out: mean graph midpoint (MG_MID) of Log10 GI50 (converted)): 8.91 µM
- LC50 ([26]; Renal panel, log of concentration leading to 50% net cell death, read-out: mean graph midpoint (MG_MID) of Log10 LC50 (converted)): 10.2 µM
- GI50 ([26]; eight renal cancer cell lines, exposure at least 48 hrs, read-out: GI50, range over the panel): 1.26 to 3.45 µM
